Laboratory results published in publication doi:10.1101/2024.04.30.591959v2, “Structural insights into human propionyl-CoA carboxylase (PCC) and 3-methylcrotonyl-CoA carboxylase (MCC)” (biorxiv, 2024).

Experiments:
Assay in all cases: cryo-EM structure, […] Å
Format in all cases: binding
human MCC holoenzyme = target: T1, human MCC holoenzyme (Homo sapiens, UniProt Q9HCC0); conditions: 10 mM acetyl-CoA, 25 mM NaHCO3, 10 mM MgCl2, 10 mM ATP, pH 7.4; CT-domain acyl-CoA pocket; not the natural substrate
T1 construct: gene MCCC2; endogenous untagged holoenzyme, native purification from Expi 293F cells on Strep-Tactin XT via covalently linked biotin (K681 of MCCα); α6β6 dodecamer; acyl-CoA site between CT-C of one β and CT-N of another β; with Methylcrotonoyl-CoA carboxylase subunit alpha, mitochondrial
T1 sequence (Q9HCC0 23-563): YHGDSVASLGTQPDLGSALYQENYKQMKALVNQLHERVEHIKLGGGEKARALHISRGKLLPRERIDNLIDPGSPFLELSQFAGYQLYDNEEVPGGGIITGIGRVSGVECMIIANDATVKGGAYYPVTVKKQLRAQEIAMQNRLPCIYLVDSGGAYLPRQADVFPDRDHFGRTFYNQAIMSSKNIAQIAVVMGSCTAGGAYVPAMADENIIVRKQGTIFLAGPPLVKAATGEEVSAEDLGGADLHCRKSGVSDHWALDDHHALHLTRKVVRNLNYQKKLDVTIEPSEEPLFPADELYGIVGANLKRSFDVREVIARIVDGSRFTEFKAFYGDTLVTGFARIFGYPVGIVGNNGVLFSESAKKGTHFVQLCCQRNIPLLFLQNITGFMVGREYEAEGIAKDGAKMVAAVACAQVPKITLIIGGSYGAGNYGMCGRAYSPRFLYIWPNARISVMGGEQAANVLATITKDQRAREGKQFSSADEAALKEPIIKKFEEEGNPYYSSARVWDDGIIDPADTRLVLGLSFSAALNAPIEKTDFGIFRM
T1 sequence (Q96RQ3 42-725 partner): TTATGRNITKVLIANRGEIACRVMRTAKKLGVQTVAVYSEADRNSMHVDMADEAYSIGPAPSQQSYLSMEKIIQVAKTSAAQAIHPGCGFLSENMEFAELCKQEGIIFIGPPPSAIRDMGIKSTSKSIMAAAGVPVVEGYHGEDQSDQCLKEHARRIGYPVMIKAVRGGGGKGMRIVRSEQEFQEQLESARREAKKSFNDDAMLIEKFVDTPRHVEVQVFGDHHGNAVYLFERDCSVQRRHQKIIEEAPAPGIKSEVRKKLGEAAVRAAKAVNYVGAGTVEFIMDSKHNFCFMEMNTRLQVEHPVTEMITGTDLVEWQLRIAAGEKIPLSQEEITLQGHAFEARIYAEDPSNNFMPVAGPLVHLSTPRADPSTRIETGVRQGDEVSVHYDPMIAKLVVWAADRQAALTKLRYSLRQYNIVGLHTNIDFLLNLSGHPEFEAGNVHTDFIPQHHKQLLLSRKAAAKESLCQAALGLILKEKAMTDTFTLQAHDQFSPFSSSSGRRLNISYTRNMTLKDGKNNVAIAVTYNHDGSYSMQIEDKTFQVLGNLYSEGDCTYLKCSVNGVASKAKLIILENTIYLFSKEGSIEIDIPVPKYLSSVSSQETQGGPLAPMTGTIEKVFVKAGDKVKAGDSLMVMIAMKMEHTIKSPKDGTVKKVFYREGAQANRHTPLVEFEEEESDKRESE

human PCC holoenzyme [1] = target: T2, human PCC holoenzyme (Homo sapiens, UniProt P05166); conditions: 10 mM acetyl-CoA, 25 mM NaHCO3, 10 mM MgCl2, 10 mM ATP, pH 7.4; CT-domain active site; acyl group not resolved in map
T2 construct: gene PCCB; endogenous untagged holoenzyme, native purification from Expi 293F cells on Strep-Tactin XT via covalently linked biotin (K694 of PCCα); α6β6 dodecamer; acyl-CoA site between CT-C of one β and CT-N of another β; with Propionyl-CoA carboxylase alpha chain, mitochondrial
T2 sequence (P05166 29-539): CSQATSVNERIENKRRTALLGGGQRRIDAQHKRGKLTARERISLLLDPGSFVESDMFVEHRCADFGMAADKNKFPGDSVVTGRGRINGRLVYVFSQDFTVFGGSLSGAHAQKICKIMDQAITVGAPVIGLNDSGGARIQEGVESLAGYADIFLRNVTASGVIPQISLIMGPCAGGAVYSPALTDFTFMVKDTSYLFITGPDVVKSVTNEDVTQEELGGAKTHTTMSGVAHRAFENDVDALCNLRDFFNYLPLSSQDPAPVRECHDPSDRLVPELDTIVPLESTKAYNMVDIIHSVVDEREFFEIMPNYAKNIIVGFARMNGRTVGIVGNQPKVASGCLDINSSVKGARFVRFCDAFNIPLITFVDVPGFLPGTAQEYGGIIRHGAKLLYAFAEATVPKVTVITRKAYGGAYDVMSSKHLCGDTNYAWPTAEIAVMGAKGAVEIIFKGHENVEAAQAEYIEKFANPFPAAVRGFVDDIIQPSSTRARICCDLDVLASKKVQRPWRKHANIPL
T2 sequence (P05165 53-728 partner): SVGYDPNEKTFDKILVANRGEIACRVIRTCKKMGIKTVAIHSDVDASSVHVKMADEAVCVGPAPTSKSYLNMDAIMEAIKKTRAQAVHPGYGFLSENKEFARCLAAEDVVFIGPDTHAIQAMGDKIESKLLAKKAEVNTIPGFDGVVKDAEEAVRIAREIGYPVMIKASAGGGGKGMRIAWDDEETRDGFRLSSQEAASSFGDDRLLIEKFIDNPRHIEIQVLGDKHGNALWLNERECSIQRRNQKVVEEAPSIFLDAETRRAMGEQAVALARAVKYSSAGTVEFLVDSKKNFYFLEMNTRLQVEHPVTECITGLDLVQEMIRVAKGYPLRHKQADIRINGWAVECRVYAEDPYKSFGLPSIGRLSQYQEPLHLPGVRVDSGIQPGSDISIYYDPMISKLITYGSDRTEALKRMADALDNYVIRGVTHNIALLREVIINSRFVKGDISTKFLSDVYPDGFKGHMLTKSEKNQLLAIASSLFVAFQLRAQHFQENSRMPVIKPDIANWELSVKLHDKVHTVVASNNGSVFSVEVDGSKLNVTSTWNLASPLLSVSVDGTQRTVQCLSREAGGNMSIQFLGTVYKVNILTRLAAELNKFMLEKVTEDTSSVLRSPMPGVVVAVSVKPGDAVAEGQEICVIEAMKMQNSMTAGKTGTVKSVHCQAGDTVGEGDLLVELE

human PCC holoenzyme [2] = target: T2, human PCC holoenzyme; conditions: 10 mM propionyl-CoA, 25 mM NaHCO3, 10 mM MgCl2, 10 mM ATP, pH 7.4; CT-domain active site; acyl group not resolved in map

| Structure (SMILES) | cryo-EM structure, 2.85 Å (human MCC holoenzyme) | cryo-EM structure, 3.38 Å (human PCC holoenzyme [1]) | cryo-EM structure, 2.80 Å (human PCC holoenzyme [2]) |
| --- | --- | --- | --- |
| CC(=O)SCCNC(=O)CCNC(=O)[C@H](O)C(C)(C)COP(=O)(O)OP(=O)(O)OC[C@H]1O[C@@H](n2cnc3c(N)ncnc32)[C@H](O)[C@@H]1OP(=O)(O)O [acetyl-CoA] | PCC and MCC holoenzymes in the acetyl-CoA-bound state (referred to as PCC-ACO and MCC-ACO) | The acetyl-CoA in the PCC-ACO structure has a binding mode similar to the propionyl-CoA |  |
| CCC(=O)SCCNC(=O)CCNC(=O)[C@H](O)C(C)(C)COP(=O)(O)OP(=O)(O)OC[C@H]1O[C@@H](n2cnc3c(N)ncnc32)[C@H](O)[C@@H]1OP(=O)(O)O [propionyl-CoA] |  |  | six propionyl-CoA molecules are observed binding to the six active sites of CT domains |
